From patent EP0186173A2, “L-Aminodicarboxylic-(0-cycloalkyl)-L-aminocarboxylate alkyl esters, an edible composition containing same as sweeteners and a method for sweetening an edible composition” (GENERAL FOODS CORPORATION, priority 1984, dated 1986)
Where a SMILES comes first, the peptide text is derived from it. The star is where a group is joined. tBu = CC(C)(C)*

How the values were obtained:
[1] = qualitative statement from prior art / literature; cited from earlier work
[2] = Sweetness taste panel: sucrose equivalency, aqueous solutions matched to sucrose standard solutions; details: relative to sucrose
Excerpt: A taste procedure for determination of sweetness merely involves the determination.of sucrose equivalency. Sucrose equivalence for sweeteners are readily determined. The amount of a sweetener that is equivalent to a given weight percent sucrose can be determined by having a panel of tasters taste solutions of a sweetener at known concentrations and match its sweetness to standard solutionsof sucrose.
The following sensory evaluations were obtained by a panel of experts using known weight percent aqueous solutions of the above compound matched to sucrose standard solutions as previously described.

CCC(C)(C)OC[C@H](NC(=O)[C@@H](N)CC(=O)O)C(=O)OC [L-aspartyl-0-t-amyl-L-serine methyl ester]
sweetness [1]: significant sweetness

COC(=O)[C@H](COC(C)(C)C)NC(=O)[C@@H](N)CC(=O)O [L-aspartyl-0-t,- butyl-L-serine methyl ester] (H-Asp-Ser(tBu)-OMe)
sweetness [1]: significant sweetness

CCOC(=O)[C@H](COC1(C)CCCC1)NC(=O)[C@@H](N)CC(=O)O [∝-L-Aspartyl-O-(1-methylcyclopentyl)-L-serine ethyl ester]
sweetness equivalent [2]: 150 x sucrose
